Results on twelve compounds are retold here after patent US8987195B2 (priority 2012, dated 2015).

The structures appear in SMILES notation.

The target in one test is HCV NS3/4A protease genotype 1b (Hepatitis C virus genotype 1b, UniProt P26663). In words: HCV NS3/4A protease time-resolved fluorescence (TRF) assay, Ki against genotype 1b. The test is classed as biochemical. As to conditions: IC50 [gt-1b] (nM), NS3/4A genotype 1b, enzyme 0.2 nM. How it is done: Measuring NS3/4A Inhibitory Activity (Ki) Against Genotype 1b, Against A156T Mutants and Against Genotype 3a
One assay for measuring inhibitory activity is HCV NS3 protease time-resolved fluorescence (TRF) assay as described below and in Mao et al., Anal. Biochem. 373:1-8, 2008 and International Patent Application Publication WO 2006/102087. A NS3 protease assay can be performed, for example, in a final volume of 20 μl assay buffer containing 50 mM HEPES, pH 7.5, 150 mM NaCl, 15% glycerol, 0.15% TRITON X-100, 10 mM DTT, and 0.1% PEG 8000. NS3 and NS4A protease is pre-incubated with various concentrations of inhibitors in DMSO for 30 min. The reaction is initiated by adding the TRF peptide substrate (final concentration 25 nM). NS3 mediated hydrolysis of the substrate was run for 2.5 hours at room temperature. Product fluorescence is detected using A Pherastar Plus plate reader (BMG) or Envision (Perkin Elmer Life and Analytical Sciences with excitation at 340 nm and emission at 615 nm using the appropriate delay time optimized for the europium fluorescence probe. Testing concentrations of different enzyme forms are selected to result in a signal to background ratio (S/B) of 10-30. IC50 values are derived using a standard four-parameter fit to the data. Ki values are derived from IC50 values using the following formula, IC50=Ki(1+[S]/KM), Eqn (1), where [S] is the concentration of substrate peptide in the reaction and KM is the Michaelis constant. See P. Gallinari et al., 38 BIOCHEM. 5620-32 (1999); P. Gallinari et al., 72 J. VIROL. 6758-69 (1998); M. Taliani et al., 240 ANAL. BIOCHEM. 60-67 (1996); Mao et al., Analytical Biochemistry 373: 1-8, 2008.
The assay described above was run against genotype 1b at a concentration of 0.2 nM, against A156T mutant strains at a concentration of 0.4 nM, and against genotype 3a at a concentration of 0.025 nM.
One may read the IC50 as the concentration needed to halve the response being measured. As for `COc1ccc2nc(C(F)(F)F)c3c(c2c1)OC[C@]1(C[C@H]2C(=O)N[C@]4(C(=O)NS(=O)(=O)C5(C)CC5)C[C@H]4/C=C\CCCCC[C@H](NC(=O)OC(C)(C)C)C(=O)N2C1)O3` [Example 8, tert-Butyl ((2′R,6′S,13a′S,14a′R,16a′S,Z)-9-methoxy-14a′-(((1-methylcyclopropyl)sulfonyl)carbamoyl)-5′,16′-dioxo-5-(trifluoromethyl)-3′,5′,6′,7′,8′,9′,10′,11′, 13a′,14′,14a′,15′,16′,16a′-tetradecahydro-1H,2H-spiro[[1,4]dioxino[2,3-c]quinoline-3,2′-cyclopropa[e]pyrrolo[1,2-a][1,4]diazacyclopentadecin]-6′-yl)carbamate], the IC50 is 0.011 nM. For the compound `COc1ccc2nc(C(F)F)c3c(c2n1)CC[C@]1(C[C@H]2C(=O)N[C@]4(C(=O)NS(=O)(=O)C5(C)CC5)C[C@H]4/C=C\CCCCC[C@H](NC(=O)OC(C)(C)C)C(=O)N2C1)O3` [Example 12, tert-Butyl ((2R,6S,13aS,14aR,16aS,Z)-6′-(difluoromethyl)-2′-methoxy-14a-(((1-methylcyclopropyl)sulfonyl)carbamoyl)-5,16-dioxo-3,5,6,7,8,9,9′,10,10′,11,13a,14,14a, 15,16,16a-hexadecahydro-1H-spiro[cyclopropa[e]pyrrolo[1,2-a][1,4]diazacyclopentadecine-2,8′-pyrano[2,3-c][1,5]naphthyridin]-6-yl)carbamate], the IC50 was 0.007 nM.

Compound `COc1ccc2nc(C(C)C)c3c(c2c1)[C@H](F)C[C@]1(C[C@H]2C(=O)N[C@]4(C(=O)NS(=O)(=O)C5(C)CC5)C[C@H]4/C=C\CCCCC[C@H](NC(=O)OC(C)(C)C)C(=O)N2C1)O3` [Example 32, tert-butyl ((1′R,2S,6S,13aS,14aR,16aS,Z)-1′-fluoro-5′-isopropyl-9′-methoxy-14a-(((1-methylcyclopropyl)sulfonyl)carbamoyl)-5,16-dioxo-1′,2′,3,5,6,7,8,9,10,11,13a,14, 14a,15,16,16a-hexadecahydro-1H-spiro[cyclopropa[e]pyrrolo[1,2-a][1,4]diazacyclopentadecine-2,3′-pyrano[2,3-c]quinolin]-6-yl)carbamate] yielded an IC50 of 0.024 nM. On the same count and under the same terms, with `CC(C)(C)OC(=O)N[C@H]1CCCCC/C=C\[C@@H]2C[C@@]2(C(=O)NS(=O)(=O)C2(C)CC2)NC(=O)[C@@H]2C[C@]3(CCc4c(c(C(F)(F)F)nc5ccc(OCCN6CCCCC6)cc45)O3)CN2C1=O` [Example 67, tert-Butyl ((2R,6S,13aS,14aR,16aS,Z)-14a-(((1-methylcyclopropyl)sulfonyl)carbamoyl)-5,16-dioxo-9′(2-(piperidin-1-yl)ethoxy)-5′-(trifluoromethyl)-1′,2′,3,5,6,7,8,9,10,11,13a,14,14a,15,16,16a-hexadecahydro-1H-spiro[cyclopropa[e]pyrrolo[1,2-a][1,4]diazacyclopentadecine-2,3′-pyrano[2,3-c]quinolin]-6-yl)carbamate] the figure was 0.021 nM; with `Cc1nc2ccccc2c2c1O[C@]1(CC2)C[C@H]2C(=O)N[C@]3(C(=O)NS(=O)(=O)C4(C)CC4)C[C@H]3/C=C\CCCCC[C@H](NC(=O)OC3CCN(C)CC3)C(=O)N2C1` [Example 117, 1-methylpiperidin-4-yl [(2R,6S,12Z,13aS,14aR,16aS)-5′-methyl-14a-{[(1-methylcyclopropyl)sulfonyl]carbamoyl}-5,16-dioxo-1,1′,2′,5,6,7,8,9,10,11,13a,14,14a,15,16,16a-hexadecahydrospiro[cyclopropa[e]pyrrolo[1,2-a][1,4]diazacyclopentadecine-2,3′-pyrano[2,3-c]quinolin]-6-yl]carbamate], 0.056 nM. For `Cc1nc2ccc(OC(F)(F)F)cc2c2c1O[C@]1(CC2)C[C@H]2C(=O)N[C@]3(C(=O)NS(=O)(=O)C4(C)CC4)C[C@H]3/C=C\CCCCC[C@H](NC(=O)OC3(C)CCCC3)C(=O)N2C1` [Example 209, 1-methylcyclopentyl [(2R,6S,12Z,13aS,14aR,16aS)-5′-methyl-14a-{[(1-methylcyclopropyl)sulfonyl]carbamoyl}-5,16-dioxo-9′-(trifluoromethoxy)-1,1′,2′,5,6,7,8,9,10,11,13a,14,14a,15,16,16a-hexadecahydrospiro[cyclopropa[e]pyrrolo[1,2-a][1,4]diazacyclopentadecine-2,3′-pyrano[2,3-c]quinolin]-6-yl]carbamate], the IC50 was found to be 0.03 nM.

Staying with this test, now noted: IC50 [gt-1b] (nM), NS3/4A genotype 1b, enzyme 0.2 nM; K+ salt.
Regarding `COc1ccc2nc(C)c3c(c2c1)CC[C@]1(C[C@H]2C(=O)N[C@]4(C(=O)NS(=O)(=O)C5(C)CC5)C[C@H]4/C=C\CCCCC[C@H](NC(=O)OC(C)(C)C)C(=O)N2C1)O3` [Example 9, tert-Butyl [(2R,6S,12Z,13aS,14aR,16aS)-9′-methoxy-5′-methyl-14a-{[(1-methylcyclopropyl)sulfonyl]carbamoyl}-5,16-dioxo-1,1′,2′,5,6,7,8,9,10,11,13a,14,14a,15, 16,16a-hexadecahydrospiro[cyclopropa[e]pyrrolo[1,2-a][1,4]diazacyclopentadecine-2,3′-pyrano[2,3-c]quinolin]-6-yl]carbamate], the IC50 amounted to 0.006 nM. Take `COc1ccc2nc(C)c3c(c2c1)CC[C@]1(C[C@H]2C(=O)N[C@]4(C(=O)NS(=O)(=O)C5(C)CC5)C[C@H]4/C=C\CCCCC[C@H](NC(=O)OC4(C)CCC4)C(=O)N2C1)O3` [Example 186, 1-methylcyclobutyl [(2R,6S,12Z,13aS,14aR,16aS)-9′-methoxy-5′-methyl-14a-{[(1-methylcyclopropyl)sulfonyl]carbamoyl}-5,16-dioxo-1,1′,2′,5,6,7,8,9,10,11,13a,14,14a,15,16,16a-hexadecahydrospiro[cyclopropa[e]pyrrolo[1,2-a][1,4]diazacyclopentadecine-2,3′-pyrano[2,3-c]quinolin]-6-yl]carbamate]: the IC50 was 0.009 nM. With `Cc1nc2cc(F)c(F)cc2c2c1O[C@]1(CC2)C[C@H]2C(=O)N[C@]3(C(=O)NS(=O)(=O)C4(C)CC4)C[C@H]3/C=C\CCCCC[C@H](NC(=O)OC3CCCCC3)C(=O)N2C1` [Example 203, cyclohexyl [(2R,6S,12Z,13aS,14aR,16aS)-8′,9′-difluoro-5′-methyl-14a-{[(1-methylcyclopropyl)sulfonyl]carbamoyl}-5,16-dioxo-1,1′,2′,5,6,7,8,9,10,11,13a,14,14a,15,16,16a-hexadecahydrospiro[cyclopropa[e]pyrrolo[1,2-a][1,4]diazacyclopentadecine-2,3′-pyrano[2,3-c]quinolin]-6-yl]carbamate], the IC50 stood at 0.015 nM. Same read-out and setting: with `Cc1nc2cc(F)c(F)cc2c2c1O[C@]1(CC2)C[C@H]2C(=O)N[C@]3(C(=O)NS(=O)(=O)C4(C)CC4)C[C@H]3/C=C\CCCCC[C@H](NC(=O)OC3CCC3)C(=O)N2C1` [Example 204, cyclobutyl [(2R,6S,12Z,13aS,14aR,16aS)-8′,9′-difluoro-5′-methyl-14a-{[(1-methylcyclopropyl)sulfonyl]carbamoyl}-5,16-dioxo-1,1′,2′,5,6,7,8,9,10,11,13a,14,14a,15,16,16a-hexadecahydrospiro[cyclopropa[e]pyrrolo[1,2-a][1,4]diazacyclopentadecine-2,3′-pyrano[2,3-c]quinolin]-6-yl]carbamate] the figure was 0.015 nM; with `COc1ccc2nc(C)c3c(c2c1)CC[C@]1(C[C@H]2C(=O)N[C@]4(C(=O)NS(=O)(=O)C5(C)CC5)C[C@H]4/C=C\CCCCC[C@H](NC(=O)OC4(C5CC5)CC4)C(=O)N2C1)O3` [Example 212, 1,1′-bi(cyclopropyl)-1-yl [(2R,6S,12Z,13aS,14aR,16aS)-9′-methoxy-5′-methyl-14a-{[(1-methylcyclopropyl)sulfonyl]carbamoyl}-5,16-dioxo-1,1′,2′,5,6,7,8,9,10,11,13a,14,14a,15,16,16a-hexadecahydrospiro[cyclopropa[e]pyrrolo[1,2-a][1,4]diazcyclopentadecine-2,3′-pyrano[2,3-c]quinolin]-6-yl]carbamate], 0.003 nM. `COc1ccc2nc(C)c3c(c2c1)CC[C@]1(C[C@H]2C(=O)N[C@]4(C(=O)NS(=O)(=O)C5(C)CC5)C[C@H]4/C=C\CCCCC[C@H](NC(=O)OCC4CCC4)C(=O)N2C1)O3` [Example 213, cyclobutylmethyl [(2R,6S,12Z,13aS,14aR,16aS)-9′-methoxy-5′-methyl-14a-{[(1-methylcyclopropyl)sulfonyl]carbamoyl}-5,16-dioxo-1,1′,2′,5,6,7,8,9,10,11,13a,14,14a,15,16,16a-hexadecahydrospiro[cyclopropa[e]pyrrolo[1,2-a][1,4]diazacyclopentadecine-2,3′-pyrano[2,3-c]quinolin]-6-yl]carbamate]: the IC50 stood at 0.004 nM.
